Measurements published in PubChem BioAssay (NCI).
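In this assay, cells in 96-well plates receive the compound at five concentrations for 48 hours. Endpoints are linearly interpolated between the surrounding concentrations. GI50 = concentration required for 50% inhibition of growth. TGI: concentration producing complete growth inhibition.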

How the values were obtained:
Test in all cases: NCI tumour cell line growth inhibition, 48 h
[1] = test system: RXF 393 renal
[2] = test system: HOP-62 NSCLC
[3] = test system: SF-539 CNS
[4] = test system: NCI-H23 lung
[5] = test system: 786-0 renal
[6] = test system: KM20L2 colon
[7] = test system: M19-MEL melanoma
[8] = test system: DLD-1 colon
[9] = test system: P388/ADR leukemia
[10] = test system: DMS 273 small cell lung
[11] = test system: SN12K1 renal
[12] = test system: P388 leukemia
[13] = test system: LXFL 529 NSCLC
[14] = test system: XF 498 CNS
[15] = test system: HOP-18 NSCLC
[16] = test system: SNB-78 CNS
[17] = test system: DMS 114 small cell lung

| SMILES | TGI [1] [µM] | TGI [2] [µM] | TGI [3] [µM] | TGI [4] [µM] | TGI [5] [µM] | TGI [6] [µM] | TGI [7] [µM] | TGI [8] [µM] | TGI [9] [µM] | TGI [10] [µM] | TGI [11] [µM] | TGI [12] [µM] | TGI [13] [µM] | TGI [14] [µM] | GI50 [15] [µM] | TGI [15] [µM] | TGI [16] [µM] | TGI [17] [µM] |
| --- | --- | --- | --- | --- | --- | --- | --- | --- | --- | --- | --- | --- | --- | --- | --- | --- | --- | --- |
| Cc1ccc2cc3c(ccc4ccccc43)c3c2c1CC3 | > 100 | > 100 | > 100 | > 100 | > 100 |  |  |  |  |  |  |  |  |  |  |  |  |  |
| CCCCNc1c(CN)cnc2cc(Cl)ccc12 | 29.5 | 35.4 |  | 39.2 | 40.2 |  |  |  |  |  |  |  |  |  |  |  |  |  |
| Nc1ccc(C2NC(=O)Cc3c2ccc2ccccc32)cc1 (stereo not drawn) |  | > 100 | > 100 | > 100 |  |  |  |  |  |  |  |  |  |  |  |  |  |  |
| NC(=O)NO | 1880 | 2220 | 1440 | 2050 | 1770 | 1700 | > 2450 | > 2500 | 502 | 1360 | 1890 | 548 | > 2320 | 1850 | 1130 | 1940 | > 2500 |  |
| C=CCOC1OC(CS(=O)(=O)O)C(O)C(O)C1O (stereo not drawn) | > 100 | > 100 |  | > 100 |  |  |  |  |  |  |  |  |  |  |  |  |  |  |
| O=C(O)C(O)Cc1ccccn1 (stereo not drawn) | > 100 | > 100 |  | > 100 |  |  |  |  |  |  |  |  |  |  |  |  |  |  |
| COc1ccc2oc(=O)cc(C)c2c1 | > 100 | > 100 | > 100 | > 100 | > 100 |  |  |  |  |  |  |  |  |  |  |  |  |  |
| COc1ccccc1N1C(Cl)C(=O)C1c1c[nH]c2ccccc12 (stereo not drawn) | > 100 | > 100 | > 100 | > 100 |  | > 100 | > 100 |  |  |  |  |  | > 100 | > 100 |  |  |  | > 100 |
| COc1ccc(C2C(=O)C(Cl)N2Nc2nc(C)cc(=O)[nH]2)cc1OC (stereo not drawn) | > 100 | > 100 | 85.5 | > 100 |  | > 100 | > 100 |  |  | 84.3 |  |  | > 100 |  |  | 53.7 | > 100 |  |
| CS/C(=N\C(=S)Nc1ccccc1)Nc1ccccc1 | 48.4 | > 100 |  | > 100 |  | > 100 | 81 |  |  |  |  |  |  |  |  |  | > 100 | 52.6 |
| c1ccc(C(c2ccccc2)[P+](c2ccccc2)(c2ccccc2)c2ccccc2)cc1 | 10.6 | 6.63 | 6.31 | 5.05 |  | 11.8 | 9.69 | 14.2 | 31.8 | 2.17 | 12.3 | 1.89 |  | 0.737 |  | 2.74 | 12.9 | 2.73 |
| FC(F)(F)C(C1=NC(C(F)(F)F)(C(F)(F)F)N=C(N2CCOCC2)O1)C(F)(F)F | 37 |  | 97.3 |  |  |  |  |  |  |  |  |  |  |  |  |  |  |  |
